Entries after “also recorded” stand apart in the source; their conditions may differ. Where two headings read alike, the source gives them in different places. Square brackets hold non-standard residues; d marks the D form. Ends that are not written are not given here.
Tests used:
[1] = tested on: dissociated cerebral cortical cultures (neurons); assay type: cell-based, rat; conditions: 5 days
[2] = tested on: mice; assay: fetal alcohol syndrome (FAS) model in pregnant mice; conditions: for fetal demise rate: pretreatment 30 minutes prior to alcohol on E8, 20 μg (each), injection, assessed E18, vs alcohol group
[3] = tested on: AF64A-treated rats; assay: AF64A cholinotoxicity in adult rats, Morris water maze; assay type: in vivo; conditions: for Morris water maze, summation of the two daily tests, vs AF64A / Morris water maze, summation of the two daily tests: 10 microgram per rat per day under the tongue
Excerpt: FIGS. 14A and B illustrate the effect of oral administration of D-NAPVSIPQ+D-SALLRSIPA on learning and memory in rats treated with the cholinotoxin AF-64A. Short-term memory processes were examined by performance in the Morris water maze, measuring the time required to find the hidden platform in the second of two daily trials. The platform location and the starting point in which the animal was placed in the water were held constant within each pair of daily trials, but both locations were changed every day. For the first test, both the platform and the animal were situated in a new location with regard to the pool (with the pool being immobile). The experiment was performed as follows: the animal was positioned on the platform for 0.5 minute, then placed in the water. […] After 0.5 minute on the platform, the animal was placed back in the water (in the previous position) for an additional second test (FIG. 14B) and search for the hidden platform (retained in the previous position). The time required to reach the platform in the second trial was recorded, indicative of short-term (working) memory. All measurements were performed using the computerized video-assisted HVS water maze system (HVS Image Ltd. Hampton, UK). Animals were tested for four days to eliminate random memory defective animals. The designated n is the number of animals tested. Each point is the mean+the standard error.
Rats (male Wistar, 300-350 g) were subjected to two daily tests in a water maze, including a hidden platform (Morris, J. Neurosci. Methods 11:47-60 (1984) and Gordon et al., Neurosci. Lett. 199:1-4 (1995); Gozes et al., J. Neurobiol. 33:329-342 (1997)). Every day for the first test, both the platform and the animal were situated in a new location with regard to the pool (with the pool being immobile). The experiment was performed as follows: the animal was positioned on the platform for 0.5 minutes then placed in the water. The time required to reach the platform (indicative of learning and intact reference memory) was measured (first test). After 0.5 minute on the platform, the animal was placed back in the water (in the previous position) for an additional second test and search for the hidden platform (retained in the previous position). The time required to reach the platform in the second trial was recorded, indicative of short-term (working) memory. All measurements were performed using the computerized video-assisted HVS water maze system (HVS Image Ltd. Hampton, UK). Animals were tested for four days to eliminate random memory defective animals. The best performers were injected i.c.v. at a rate of 0.21 μl/min. with the cholinotoxin ethylcholine aziridium (AF64A, 3 nmolI2 μl/side), control animals received an injection of saline (Gozes et al, Proc. Natl. Acad. Sci. USA 93:427-432 (1996)).
Animals were allowed to recover for one week, followed by daily exposure to three micrograms of D-SAL+three micrograms of D-NAP, in 20 microliter saline, applied orally on the tongue. After a week of oral peptide application, the animals were subjected to two daily tests in the water maze (as above). During the test-period, animals were also given an oral administration of peptide or vehicle (carrier) an hour before the daily test.
FIG. 14C illustrates the effect of oral administration of D-SALLRSIPA alone on learning and memory in rats treated with the cholinotoxin AF-64A. Rats were treated with the cholinotoxin AF-64A and D-SALLRSIPA as described in Gozes et al., J. Pharmacol. Exp. Therap. 293: 1091-1098 (2000), except that D-SALLRSIPA was delivered to AF64A-treated rats was as follows: 10 microgram D-SALLRSIPA (D-SAL) per rat (250-300 g) per day in 50 microliter saline under the tongue, using a micropipette. Peptides were applied once daily for three days, a week after the AF64A lesion. After a 2-day cessation, peptides were applied once daily for another 5 days and tested from day three on. […]

[4] = tested on: choline acetyl transferase activity; conditions: ApoE-deficient mice with reduced choline acetyl transferase activity; cited from earlier work
[5] = single peptide, 1 μM tetrodotoxin, neuronal cell counts

Substance	survival-promoting activity (preventing neuronal cell death associated with electrical blockade with TTX) [1, 5]	fetal demise rate [2]	cholinergic function [4]	further results
D-NA{L-P}VSIPQ: NAPVSIPQ with all amino acids in the D-form, except the third proline residue in the L-form	–	–	–	survival-promoting activity (preventing neuronal cell death associated with electrical blockade with TTX) [1]: retained survival-promoting activity and was effective in cell culture in preventing neuronal cell death
Asn-Ala-Pro-Val-Ser-Ile-Pro-Gln [D-NAP]	very similar, with each exhibiting a complex dose response with two apparent maxima; also recorded: virtually identical in neuronal survival activity in vitro	significantly reduced the fetal demise rate; also recorded: prevents fetal demises	–	–
Ser-Ala-Leu-Leu-Arg-Ser-Ile-Pro-Ala [D-SAL] ([dS][dA][dL][dL][dR][dS][dI][dP][dA])	identical in both potency and efficacy; also recorded: virtually identical in neuronal survival activity in vitro	significantly reduced the fetal demise rate; also recorded: prevents fetal demises	–	learning and memory, overall conclusion ([3]; D-SALLRSIPA alone, oral, AF64A-treated rats): effective on its own; Morris water maze, summation of the two daily tests, vs AF64A ([3]; Day 1): P<0.04 D-SALLRSIPA-AF64A vs. AF64A; Morris water maze, summation of the two daily tests ([3]; Day 2): not significantly different from either AF64A animals or control; Morris water maze, summation of the two daily tests ([3]; Day 3): No difference; Morris water maze, summation of the two daily tests ([3]; Day 4): No difference; Morris water maze, summation of the two daily tests, vs AF64A ([3]; Day 5, t-test): P<0.04 D-SALLRSIPA-AF64A vs. AF64A; fetal death ([2]; oral by gavage 30 minutes prior to alcohol, 40 μg, assessed on E18): prevent fetal death
SALLRSIPA [L-SAL]	–	–	less effective	–
Asn-Ala-Pro-Val-Ser-Ile-Pro-Gln [L-NAP, reference compound]	very similar, with each exhibiting a complex dose response with two apparent maxima; also recorded: virtually identical in neuronal survival activity in vitro	–	significantly increased cholinergic function to control levels	–
SALLRSIPA [reference compound]	identical in both potency and efficacy; also recorded: virtually identical in neuronal survival activity in vitro	–	–	–

Source: patent US8017578B2, “Orally active peptides that prevent cell damage and death” (The United States of America as represented by the …, priority 1999, dated 2011)
